Results reported in US5589457A, “Process for the synchronization of ovulation” (Ausa International, Inc., priority 1995, dated 1996).
No end group written: not given here.

How the values were obtained:
[1] = test system: cow; details: cited from earlier work
[2] = test system: lactating dairy cows; assay: Ovulation response to GnRH injection in lactating dairy cows; assay type: in vivo, bovine
Excerpt: The sequential hormone treatments function in the following manner. The first injection of GnRH (or the LH or hCG if used) will cause ovulation of any large functional follicles that are present on the ovaries. Experimental work has shown that a follicle will ovulate in over 80% of lactating dairy cows that are given this GnRH injection. This ensures that a Corpus Luteum is present on the ovary to inhibit animals from coming into heat during the following week. This injection causes growth of a new wave of follicles due to secretion of follicle stimulating hormone (FSH) from the pituitary gland. Thus, the first injection of GnRH assures the presence of a corpus luteum and synchronizes the growth of a new follicular wave. The follicle that will eventually ovulate will come from this new wave of follicles.
As with other protocols, such as disclosed in the aforementioned patent to Donaldson, the injection of PGF2a is designed to regress any corpora lutea that are present on the ovary. This allows the new dominant follicle to proceed toward ovulation. Usually about 11/2 to 2 days later, just before two animals would begin to show signs of heat, the cows are given a second injection of GnRH. At this time the new dominant follicle should be at a large ovulatory size and this injection will cause the large follicle to ovulate. However, as indicated previously, the second dose of GnRH can be given at the same time as the PGF2a injection and this can be done where it is desirable to enhance management efficiency; that is by combining the PGF2a and GnRH injection, one step in the treatment protocol is eliminated. The cows will ovulate at 1-2 days, usually 24-32 hours after this second injection of GnRH. Thus, instead of having animals show heat over a 7 day period of time, ovulation can be synchronized to an 8 hour period of time. This concise synchronization allows for effective timed insemination.

[3] = test system: cows; assay: Artificial insemination concomitant with second GnRH dose (preliminary work); assay type: in vivo, bovine; details: insemination near or at the same time as second GnRH injection
Protocol: While the normal practice will be to inseminate the cows about 16-20 hours after the second GnRH injection, insemination can occur any time ranging from the time of the GnRH injection or a day before or up to about a day later. Ovulation need not occur before insemination since the sperm can survive in the reproductive track for up to one or even two days after insemination. Thus insemination can safely take place one day before the GnRH injection. Preliminary work has shown that in some cases there may be some advantages to carrying out the artificial insemination concomitantly with the administration of the second dose of GnRH or within eight hours either before or after the second dose of GnRH.

[4] = second GnRH injection after PGF2a

Row | Compound | time to heat after PGF2a, large dominant follicle present ([1]; PGF2a given when a large dominant follicle is present) [days] | time for follicle to grow large enough to induce heat after PGF2a, new follicular wave just beginning ([1]; PGF2a given when a new follicular wave is just beginning) [days] | period of time to which ovulation is synchronized ([2]; after second GnRH injection) [h] | lactating dairy cows in which a follicle will ovulate after the first GnRH injection ([2]; first injection of GnRH, any stage of estrous cycle) | time of ovulation after second injection of GnRH [2, 4] [days] | usual time of ovulation after second injection of GnRH [2, 4] [h] | birth rate of female calves [3] | spontaneous abortion rate [3]
1 | CCCCC[C@H](O)/C=C/[C@@H]1[C@@H](C/C=C\CCCC(=O)O)[C@@H](O)C[C@H]1O [PGF2a, prostaglandin F2α] | 2 to 3 | 6 to 7 | – | – | – | – | – | –
2 | gonadotropin releasing hormone (QHWSYGLRPG; ends and bridges not checked; UniProt P01148 24-33, looked up) [GnRH] | – | – | 8 | over 80% | 1 to 2 | 24 to 32 | enhancement in the birth rate of female calves | somewhat lower spontaneous abortion rate
